Data from patent publication US7247626B2, “Pyrazolopyrimidine derivatives and pharmaceutical compositions containing them” (SmithKline Beecham Corporation, priority 2002, dated 2007).

Test system: HSV-1
Assay: HSV-1 infection of Vero 76 cells, viral DNA hybridization capture assay
Type: cell-based
Details: Human alphaherpesvirus 1; HSV-1 (MOI=0.001) in Vero 76 cells, 40–48 hours incubation, HSV DNA hybridization with chemiluminescence detection
Experimental: Vero 76 cells were maintained in MEM with Earle's salts, L-glutamine, 8% FBS (Hyclone, A-1111-L) and 100 units/mL Penicillin-100 μg/mL Streptomycin. For assay conditions, FBS was reduced to 2%. Cells are seeded into 96-well tissue culture plates at a density of 5×10^4 cells/well after being incubated for 45 min at 37° C. in the presence of HSV-1 or HSV-2 (MOI=0.001). Test compounds are added to the wells and the plates are incubated at 37° C. for 40–48 hours. Cell lysates are prepared as follows: media was removed and replaced with 150 μL/well 0.2 N NaOH with 1% Igepal CA 630 or NP-40. Plates were incubated up to 14 days at room temperature in a humidified chamber to prevent evaporation.
For the detection probe, a gel-purified, digoxigenin-labeled, […] PCR fragment of the HSV UL-15 sequence was utilized. PCR conditions included 0.5 μM primers, 180 μM dTTP, 20 μM dUTP-digoxigenin (Boehringer Mannheim 1558706), 200 μM each of dATP, dCTP, and dGTP, 1×PCR Buffer II (Perkin Elmer), 2.5 mM, MgCl2, 0.025 units/μL of AmpliTaq Gold polyerase (Perkin Elmer), and 5 ng a gel-purified HSV DNA per 100 μL Extension conditions were 10 min at 95° C., followed by 30 cycles of 95° C. for 1 min, 55° C. for 30 sec, and 72° C. for 2 min. The amplification was completed with a 10-min incubation at 72° C. Primers were selected to amplify a 728 bp probe spanning a section of the HSV1 UL15 open reading frame (nucleotides 249–977). Single-stranded transcripts were purified with Promega M13 Wizard kits. The final product was mixed 1:1 with a mixture of 6 M GuSCN, 100 mM EDTA and 200 μg/mL herring sperm DNA and stored at 4° C.
The capture DNA plasmid (HSV UL13 region in pUC) was linearized by cutting with Xba I, denatured for 15 min at 95° C. and diluted immediately into Reacti-Bind DNA Coating Solution (Pierce, 17250, diluted 1:1 with TE buffer, pH 8) at 1 ng/μL 75 μl/well were added to Corning (#3922 or 9690) white 96-well plates and incubated at room temperature for at least 4 hrs before washing twice with 300 μL/well 0.2×SSC/0.05% Tween-20 (SSC/T buffer). The plates were then incubated overnight at room temperature with 150 μL/well 0.2 N NaOH, 1% IGEPAL and 10 μg/mL herring sperm DNA.
Twenty-seven (27) μL of cell lysate was combined with 45 μL of hydridization solution (final concentration: 3M GuSCN, 50 mM EDTA, 100 μg/ml salmon sperm DNA, 5× Denhardt's solution, 0.25× APE, and 5 ng of the digoxigenin-labeled detection probe). APE is 1.5 M NH4-acetate, 0.15 M NH4H2phosphate, and 5 mM EDTA adjusted to pH 6.0. Mineral oil (50 μL) was added to prevent evaporation. The hybridization plates were incubated at 95° C. for 10 minutes to denature the DNA, then incubated at 42° C. overnight. The wells were washed 6× with 300 μL/well SSC/T buffer then incubated with 75 μL/well anti-digoxigenin-HRP-conjugated antibody (Boehringer Mannheim 1207733, 1:5000 in TE) for 30 min at room temperature. The wells were washed 6× with 300 μL/well with PBS/0.05% Tween-20 before 75 μL/well SuperSignal LBA substrate (Pierce) was added. The plates were incubated at room temperature for 30 minutes and chemiluminescence was measured in a Wallac Vietor reader.
The following results were obtained for HSV-1.

Compared with `Fc1ccc(-c2nn3c(N4CCCCC4)nccc3c2-c2ccnc(NC3CCCC3)n2)cc1` [Example 31, N-Cyclopentyl-4-[2-(4-fluorophenyl)-7-piperidin-1-ylpyrazolo[1,5-c]pyrimidin-3-yl]pyrimidin-2-amine], `Fc1ccc(-c2nn3c(N4CCCC4)nccc3c2-c2ccnc(NC3CCCC3)n2)cc1` [Example 30, N-Cyclopentyl-4-[2-(4-fluorophenyl)-7-pyrrolidin-1-ylpyrazolo[1,5-c]pyrimidin-3-yl]pyrimidin-2-amine] is 2-fold higher in IC50: 1000 nM for the first, 2000 nM for the second. The first is the more potent here.

Compared with `Clc1cccc(-c2nn3c(N4CCOCC4)nccc3c2-c2ccnc(NC3CCCC3)n2)c1` [Example 6, 4-[2-(3-Chlorophenyl)-7-(4-morpholinyl)pyrazolo[1,5-c]pyrimidin-3-yl]-N-cyclopentyl-2-pyrimidinamine], `Oc1nccc2c(-c3ccnc(NC4CCCC4)n3)c(-c3cccc(Cl)c3)nn12` [Example 8, 2-(3-Chlorophenyl)-3-[2-(cyclopentylamino)-4-pyrimidinyl]pyrazolo[1,5-c]pyrimidin-7-ol] is 12-fold higher in IC50: 200 nM for the first, 2500 nM for the second. The first is the more potent here.

Compared with `Fc1ccc(CNc2nccc(-c3c(-c4ccc(F)cc4)nn4c(NC5CCCC5)nccc34)n2)cc1` [Example 17, N-Cyclopentyl-3-{2-[(4-fluorobenzyl)amino]pyrimidin-4-yl}-2-(4-fluorophenyl)pyrazolo[1,5-c]pyrimidin-7-amine], `Fc1ccc(-c2nn3c(NC4CCCC4)nccc3c2-c2ccnc(NCCc3ccccc3)n2)cc1` [Example 18, N-Cyclopentyl-2-(4-fluorophenyl)-3-{2-[(2-phenylethyl)amino]pyrimidin-4yl}pyrazolo[1,5-c]pyrimidin-7-amine] is 1.8-fold higher in IC50: 2000 nM for the first, 3500 nM for the second.

Compared with `c1ccc(-c2nn3c(NC4CCCC4)ncnc3c2-c2ccnc(NC3CCCC3)n2)cc1` [Example 11, N-Cyclopentyl-8-[2-(cyclopentylamino)-4-pyrimidinyl]-7-phenylpyrazolo[1,5-a][1,3,5]triazin-4-amine], `Clc1cccc(-c2nn3c(NC4CCCC4)nccc3c2-c2ccnc(NC3CCCC3)n2)c1` [Example 5, 2-(3-Chlorophenyl)-N-cyclopentyl-3-[2-(cyclopentylamino)-4-pyrimidinyl]pyrazolo[1,5-c]pyrimidin-7-amine] is 14-fold lower in IC50: 6400 nM for the first, 460 nM for the second.

Going from `Fc1ccc(-c2nn3c(NC4CCCC4)nccc3c2-c2ccnc(Nc3ccccc3)n2)cc1` [Example 13, 3-(2-Anilinopyrimidin-4-yl)-N-cyclopentyl-2-(4-fluorophenyl)pyrazolo-[1,5-c]pyrimidin-7-amine] to `Fc1ccc(-c2nn3c(NC4CCCC4)nccc3c2-c2ccnc(Nc3nc4ccccc4[nH]3)n2)cc1` [Example 16, 3-[2-(1H-Benzimidazol-2-ylamino)pyrimidin-4-yl]-N-cyclopentyl-2-(4-fluorophenyl)pyrazolo[1,5-c]pyrimidin-7-amine], the IC50 rises from 1500 nM to over 40000 nM.

Compared with `c1ccc(-c2nn3c(NC4CCCC4)nc(NC4CCCC4)nc3c2-c2ccnc(NC3CCCC3)c2)cc1` [Example 10, N^2,N^4-Dicyclopentyl-8-[2-(cyclopentylamino)-4-pyridinyl]-7-phenylpyrazolo[1,5-a][1,3,5]triazine-2,4-diamine], `CSc1nc(NC2CCCC2)n2nc(-c3ccccc3)c(-c3ccnc(F)c3)c2n1` [Example 9, N-Cyclopentyl-8-(2-fluoro-4-pyridinyl)-2-(methylsulfanyl)-7-phenylpyrazolo[1,5-a][1,3,5]triazin-4-amine] is 59-fold higher in IC50: 120 nM for the first, 7100 nM for the second. The first is the more potent here.

Compared with `COc1ccc(-c2nn3c(NC4CC4)nccc3c2-c2ccnc(NC3CCCC3)n2)cc1` [Example 24, 3-[2-(Cyclopentylamino)pyrimidin-4-yl]-N-cyclopropyl-2-(4-methoxyphenyl)pyrazolo[1,5-c]pyrimidin-7-amine], `COc1ccc(-c2nn3c(NC4CCCC4)nccc3c2-c2ccnc(NC3CCCC3)n2)cc1` [Example 21, N-Cyclopentyl-3-[2-(cyclopentylamino)pyrimidin-4-yl]-2-(4-methoxyphenyl)pyrazolo[1,5-c]pyrimidin-7-amine] is 2.5-fold lower in IC50: 1000 nM for the first, 400 nM for the second. The second is the more potent here.

Going from `Clc1cccc(-c2nn3cnccc3c2-c2ccnc(NC3CCCC3)n2)c1` [Example 3, 4-[2-(3-Chlorophenyl)pyrazolo[1,5-c]pyrimidin-3-yl]-N-cyclopentylpyrimidin-2-amine] to `CSc1nccc2c(-c3ccnc(NC4CCCC4)n3)c(-c3cccc(Cl)c3)nn12` [Example 4, 4-[2-(3-Chlorophenyl)-7-(methylthio)pyrazolo[1,5-c]pyrimidin-3-yl]-N-cyclopentylpyrimidin-2-amine], the IC50 rises from 3900 nM to 11300 nM (2.9-fold). The first is the more potent here.

Compared with `CCCCOc1ccc(-c2nn3c(NC4CCCC4)nccc3c2-c2ccnc(NC3CCCC3)n2)cc1` [Example 25, 2-(4-Butoxyphenyl)-N-cyclopentyl-3-[2-(cyclopentylamino)pyrimidin-4-yl]pyrazolo[1,5-c]pyrimidin-7-amine], `COCCOc1ccc(-c2nn3c(NC4CCCC4)nccc3c2-c2ccnc(NC3CCCC3)n2)cc1` [Example 27, N-Cyclopentyl-3-[2-(cyclopentylamino)pyrimidin-4-yl]-2-[4-(2-methoxyethoxy)phenyl]pyrazolo[1,5-c]pyrimidin-7-amine] is 1.7-fold higher in IC50: 600 nM for the first, 1000 nM for the second. The first is the more potent here.

Going from `COCCNc1nccc2c(-c3ccnc(NC4CCCC4)n3)c(-c3cccc(Cl)c3)nn12` [Example 7, 2-(3-Chlorophenyl)-3-[2-(cyclopentylamino)-4-pyrimidinyl]-N-(2-methoxyethyl)pyrazolo[1,5-c]pyrimidin-7-amine] to `CCCCNc1nccc(-c2c(-c3ccc(F)cc3)nn3c(NC4CCCC4)nccc23)n1` [Example 12, 3-[2-(Butylamino)pyrimidin-4-yl]-N-cyclopentyl-2-(4-fluorophenyl)pyrazolo[1,5-c]pyrimidin-7-amine], the IC50 rises from 300 nM to 1000 nM (3.3-fold). The first is the more potent here.

First: CC(C)(C)Nc1nccc(-c2c(-c3ccc(F)cc3)nn3c(NC4CCCC4)nccc23)n1 [Example 19, 3-[2-(tert-Butylamino)pyrimidin-4-yl]-N-cyclopentyl-2-(4-fluorophenyl)pyrazolo[1,5-c]pyrimidin-7-amine]
Second: CC(C)(C)Nc1nccc2c(-c3ccnc(NC4CCCC4)n3)c(-c3ccc(F)cc3)nn12 [Example 29, N-(tert-Butyl)-3-[2-(cyclopentylamino)pyrimidin-4-yl]-2-(4-fluorophenyl)pyrazolo[1,5-c]pyrimidin-7-amine]
The IC50 of the first is 2.3-fold lower: 3000 nM for the first, 7000 nM for the second. The first is the more potent here.

Going from `CSc1nccc2c(-c3ccnc(NC4CCCC4)n3)c(-c3ccc(F)cc3)nn12` [Example 20, N-Cyclopentyl-4-[2-(4-fluorophenyl)-7-(methylsulfanyl)pyrazolo[1,5-c]pyrimidin-3-yl]pyrimidin-2-amine] to `Fc1ccc(-c2nn3c(NC4CCCC4)nccc3c2-c2ccnc(NC3CC3)n2)cc1` [Example 2, N-Cyclopentyl-3-[2-(cyclopropylamino)pyrimidin-4yl]-2-(4-fluorophenyl)pyrazolo[1,5-c]pyrimidin-7-amine], the IC50 falls from over 40000 nM to 5500 nM. The second is the more potent here.

`c1cc(-c2c(-c3ccc(OCC4CC4)cc3)nn3c(NC4CCCC4)nccc23)nc(NC2CCCC2)n1` [Example 23, N-Cyclopentyl-3-[2-(cyclopentylamino)pyrimidin-4-yl]-2-[4-(cyclopropylmethoxy)phenyl]pyrazolo[1,5-c]pyrimidin-7-amine] and `CC(C)COc1ccc(-c2nn3c(NC4CCCC4)nccc3c2-c2ccnc(NC3CCCC3)n2)cc1` [Example 26, N-Cyclopentyl-3-[2-(cyclopentylamino)pyrimidin-4-yl]-2-(4-isobutoxyphenyl)pyrazolo[1,5-c]pyrimidin-7-amine] are the same in IC50: 500 nM for the first, 500 nM for the second.

`Fc1ccc(-c2nn3c(NC4CCCC4)nccc3c2-c2ccnc(NC3CCCC3)n2)cc1` [Example 1, N-Cyclopentyl-3-[2-(cyclopentylamino)pyrimidin-4-yl]-2-(4-fluorophenyl)pyrazolo[1,5-c]pyrimidin-7-amine] was tested, and the IC50 was 720 nM.
